Source: patent publication US8461083B2, “Herbicidal compounds” (Syngenta Limited, priority 2008, dated 2013)

Legend:
Assay type in all cases: in vivo
[1] = tested on: Alopecurus myosuroides (ALOMY); assay: Post-emergence herbicidal glasshouse test; details: post-emergence (sprayed after 8 days cultivation), evaluated after 13 days, 100=total damage to plant, 0=no damage to plant; for pest or weed control at 1000 g/ha: Alopecurus myosuroides, 312 h, read-out: POST Application ALOMY, damage to plant; for POST Application ALOMY, damage to plant: 1000 g/ha
Procedure: (§1) Seeds of a variety of test species were sown in standard soil in pots (Alopecurus myosuroides (ALOMY), Setaria faberi (SETFA), Echinochloa crus-galli (ECHCG), Solanum nigrum (SOLNI) and Amaranthus retoflexus (AMARE)). After cultivation for one day (pre-emergence) or after 8 days cultivation (post-emergence) under controlled conditions in a glasshouse (at 24/16° C., day/night; 14 hours light; 65% humidity), the plants were sprayed with an aqueous spray solution derived from the formulation of the technical active ingredient in acetone/water (50:50) solution containing 0.5% Tween 20 (polyoxyethelyene sorbitan monolaurate, CAS RN 9005-64-5). Compounds were applied at 1000 g/ha. The test plants were then grown in a glasshouse under controlled conditions in a glasshouse (at 24/16° C., day/night; 14 hours light; 65% humidity) and watered twice daily. After 13 days for pre and post-emergence, the test was evaluated (100=total damage to plant; 0=no damage to plant).

[2] = tested on: Amaranthus retoflexus (AMARE); assay: Post-emergence herbicidal glasshouse test; details: post-emergence (sprayed after 8 days cultivation), evaluated after 13 days, 100=total damage to plant, 0=no damage to plant; for pest or weed control at 1000 g/ha: Amaranthus retroflexus, 312 h, read-out: POST Application AMARE, damage to plant; for POST Application AMARE, damage to plant: 1000 g/ha
Procedure: as §1

[3] = tested on: Echinochloa crus-galli (ECHCG); assay: Post-emergence herbicidal glasshouse test; details: post-emergence (sprayed after 8 days cultivation), evaluated after 13 days, 100=total damage to plant, 0=no damage to plant; for pest or weed control at 1000 g/ha: Echinochloa crus-galli, 312 h, read-out: POST Application ECHCG, damage to plant; for POST Application ECHCG, damage to plant: 1000 g/ha
Procedure: as §1

[4] = tested on: Setaria faberi (SETFA); assay: Post-emergence herbicidal glasshouse test; details: post-emergence (sprayed after 8 days cultivation), evaluated after 13 days, 100=total damage to plant, 0=no damage to plant; for pest or weed control at 1000 g/ha: Setaria faberi, 312 h, read-out: POST Application SETFA, damage to plant; for POST Application SETFA, damage to plant: 1000 g/ha
Procedure: as §1

[5] = tested on: Solanum nigrum (SOLNI); assay: Post-emergence herbicidal glasshouse test; details: post-emergence (sprayed after 8 days cultivation), evaluated after 13 days, 100=total damage to plant, 0=no damage to plant; for pest or weed control at 1000 g/ha: Solanum nigrum, 312 h, read-out: POST Application SOLNI, damage to plant; for POST Application SOLNI, damage to plant: 1000 g/ha
Procedure: as §1

[6] = tested on: Alopecurus myosuroides (ALOMY); assay: Pre-emergence herbicidal glasshouse test; details: pre-emergence (sprayed after one day cultivation), evaluated after 13 days, 100=total damage to plant, 0=no damage to plant; for pest or weed control at 1000 g/ha: Alopecurus myosuroides, 312 h, read-out: PRE Application ALOMY, damage to plant; for PRE Application ALOMY, damage to plant: 1000 g/ha
Procedure: as §1

[7] = tested on: Amaranthus retoflexus (AMARE); assay: Pre-emergence herbicidal glasshouse test; details: pre-emergence (sprayed after one day cultivation), evaluated after 13 days, 100=total damage to plant, 0=no damage to plant; for pest or weed control at 1000 g/ha: Amaranthus retroflexus, 312 h, read-out: PRE Application AMARE, damage to plant; for PRE Application AMARE, damage to plant: 1000 g/ha
Procedure: as §1

[8] = tested on: Echinochloa crus-galli (ECHCG); assay: Pre-emergence herbicidal glasshouse test; details: pre-emergence (sprayed after one day cultivation), evaluated after 13 days, 100=total damage to plant, 0=no damage to plant; for pest or weed control at 1000 g/ha: Echinochloa crus-galli, 312 h, read-out: PRE Application ECHCG, damage to plant; for PRE Application ECHCG, damage to plant: 1000 g/ha
Procedure: as §1

[9] = tested on: Setaria faberi (SETFA); assay: Pre-emergence herbicidal glasshouse test; details: pre-emergence (sprayed after one day cultivation), evaluated after 13 days, 100=total damage to plant, 0=no damage to plant; for pest or weed control at 1000 g/ha: Setaria faberi, 312 h, read-out: PRE Application SETFA, damage to plant; for PRE Application SETFA, damage to plant: 1000 g/ha
Procedure: as §1

[10] = tested on: Solanum nigrum (SOLNI); assay: Pre-emergence herbicidal glasshouse test; details: pre-emergence (sprayed after one day cultivation), evaluated after 13 days, 100=total damage to plant, 0=no damage to plant; for pest or weed control at 1000 g/ha: Solanum nigrum, 312 h, read-out: PRE Application SOLNI, damage to plant; for PRE Application SOLNI, damage to plant: 1000 g/ha
Procedure: as §1

SMILES	pest or weed control at 1000 g/ha [1] [%]	pest or weed control at 1000 g/ha [2] [%]	pest or weed control at 1000 g/ha [3] [%]	pest or weed control at 1000 g/ha [4] [%]	pest or weed control at 1000 g/ha [5] [%]	pest or weed control at 1000 g/ha [6] [%]	pest or weed control at 1000 g/ha [7] [%]	pest or weed control at 1000 g/ha [8] [%]	pest or weed control at 1000 g/ha [9] [%]	pest or weed control at 1000 g/ha [10] [%]	POST Application ALOMY, damage to plant [1]	POST Application AMARE, damage to plant [2]	POST Application ECHCG, damage to plant [3]	POST Application SETFA, damage to plant [4]	POST Application SOLNI, damage to plant [5]	PRE Application ALOMY, damage to plant [6]	PRE Application AMARE, damage to plant [7]	PRE Application ECHCG, damage to plant [8]	PRE Application SETFA, damage to plant [9]	PRE Application SOLNI, damage to plant [10]
Cc1nc2nc(C(F)(F)F)c(C(=O)C3C(=O)C(C)(C)OC(C)(C)C3=O)cc2cc1F [Compound 5.2]	70	90	80	80	70	90	100	100	100	100										
CCc1nc2nc(C(F)(F)F)c(C(=O)C3C(=O)CCCC3=O)cc2cc1F [Compound 1.67, 2-[7-ethyl-6-fluoro-2-trifluoromethyl-[1,8]-naphthyridine-3-carbony]-cyclohexane-1,3-dione]											90	80	90	90	100	90	100	100	100	100
COC(C)c1ccc2cc(C(=O)C3C(=O)CCCC3=O)c(C(F)(F)F)nc2n1 (stereo not drawn) [Compound 1.63, 2-[7-(1-methoxyethyl)-2-trifluoromethyl-[1,8]-naphthyridine-3-carbony]-cyclohexane-1,3-dione]											90	100	90	90	80	70	100	100	100	100
C#CCNc1nc2nc(C(F)(F)F)c(C(=O)C3C(=O)CCCC3=O)cc2cc1F [Compound 1.103]											70	80	80	90	90	40	80	100	100	100
O=C1CCCC(=O)C1C(=O)c1cc2ccc(=O)n(CCc3ccccc3)c2nc1C(F)(F)F [Compound 2.15, 2-{8-(2-phenylethyl)-7-oxo-7,8-dihydro-2-trifluoromethyl-[1,8]-naphthyridine-3-carbonyl}-cyclohexane-1,3-dione]	40	70	80	90	90	10	30	90	40	90										
O=C1CCCC(=O)C1C(=O)c1cc2ccc(CF)nc2nc1C(F)(F)F [Compound 1.11]	70	100	90	90	100	60	80	100	100	100										
CCCCCCCC(=O)OC1=C(C(=O)c2cc3cc(F)c(C)nc3nc2C(F)(F)F)C(=O)CCC1 [Compound 4.22, n-Octanoic acid 2-(6-fluoro-7-methyl-2-trifluoromethyl-[1,8]-naphthyridine-3-carbonyl)-3-oxo-cyclohex-1-enyl ester]	70	90	90	80	90	60	100	100	100	100										
CC(CF)c1ccc2cc(C(=O)C3C(=O)C4CCC(C4)C3=O)c(C(F)(F)F)nc2n1 (stereo not drawn) [Compound 3.11]											70	100	80	90	90	70	100	100	90	100
Cc1cc(Cn2c(=O)ccc3cc(C(=O)C4C(=O)CCCC4=O)c(C(F)(F)F)nc32)no1 [Compound 2.1]											90	100	80	90	90	80	90	90	90	90
CCc1ccc2cc(C(=O)C3C(=O)CCCC3=O)c(C(F)(F)F)nc2n1 [Compound 1.3, 2-[7-ethyl-trifluoromethyl-[1,8]-naphthyridine-3-carbony]-cyclohexane-1,3-dione]											70	100	80	90	90	80	90	100	80	100
CN(Cc1nc2nc(C(F)(F)F)ccc2cc1C(=O)C1C(=O)CCCC1=O)S(C)(=O)=O [Compound 1.108, 2-[{methanesulfonyl-N-methylaminomethyl}-7-trifluoromethyl-[1,8]-naphthyridine-3-carbony]-cyclohexane-1,3-dione]											20	70	80	80	90	0	80	70	40	90
O=C1CCCC(=O)C1C(=O)c1cc2ccc(=O)n(CC3CC3)c2nc1C(F)(F)F [Compound 2.9, 2-{8-(cyclopropylmethyl)-7-oxo-7,8-dihydro-2-trifluoromethyl-[1,8]-naphthyridine-3-carbony}-cyclohexane-1,3-dione]											90	100	90	90	90	60	60	100	90	90
